Laboratory results from the Kinase Knowledgebase extract (Sharma et al. 2016).

Experiments:
Assay in all cases: Enzyme Assay
PIK3CG (human) = PIK3CG (human) (UniProt P48736)
PIK3CB (Human) = PIK3CB (Human) (UniProt P42338)
PIK3CA (human) = PIK3CA (human) (UniProt P42336)
PIK3CD (Human) = PIK3CD (Human) (UniProt O00329)
Sequence of PIK3CD (Human) (O00329 whole entry, looked up): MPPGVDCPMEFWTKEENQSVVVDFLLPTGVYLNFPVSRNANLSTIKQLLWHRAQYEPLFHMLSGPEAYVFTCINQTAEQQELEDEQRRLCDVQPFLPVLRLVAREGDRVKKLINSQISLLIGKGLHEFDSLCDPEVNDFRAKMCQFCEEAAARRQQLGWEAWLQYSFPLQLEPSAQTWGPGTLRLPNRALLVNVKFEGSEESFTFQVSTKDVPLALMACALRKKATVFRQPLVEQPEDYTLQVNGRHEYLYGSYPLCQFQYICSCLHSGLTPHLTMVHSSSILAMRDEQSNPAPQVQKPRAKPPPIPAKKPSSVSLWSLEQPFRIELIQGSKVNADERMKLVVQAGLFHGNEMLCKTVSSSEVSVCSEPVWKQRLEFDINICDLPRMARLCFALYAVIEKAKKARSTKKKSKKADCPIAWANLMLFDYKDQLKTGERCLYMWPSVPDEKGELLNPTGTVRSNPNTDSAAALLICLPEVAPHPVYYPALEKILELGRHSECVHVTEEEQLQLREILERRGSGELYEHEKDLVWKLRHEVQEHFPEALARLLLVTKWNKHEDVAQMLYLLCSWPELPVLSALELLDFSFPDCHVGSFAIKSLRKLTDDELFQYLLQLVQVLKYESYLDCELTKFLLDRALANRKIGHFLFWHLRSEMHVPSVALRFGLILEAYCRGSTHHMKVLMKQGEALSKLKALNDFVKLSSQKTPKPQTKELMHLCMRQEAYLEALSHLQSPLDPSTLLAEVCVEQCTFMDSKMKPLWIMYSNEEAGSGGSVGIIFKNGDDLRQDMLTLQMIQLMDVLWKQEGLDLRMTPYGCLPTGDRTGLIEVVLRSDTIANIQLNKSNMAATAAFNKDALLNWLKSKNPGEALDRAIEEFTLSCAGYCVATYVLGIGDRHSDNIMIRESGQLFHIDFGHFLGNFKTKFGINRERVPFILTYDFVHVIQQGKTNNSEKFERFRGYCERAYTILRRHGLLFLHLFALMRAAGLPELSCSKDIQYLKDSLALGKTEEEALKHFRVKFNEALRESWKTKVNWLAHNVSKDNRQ

Sequence of PIK3CG (human) (P48736 whole entry, looked up): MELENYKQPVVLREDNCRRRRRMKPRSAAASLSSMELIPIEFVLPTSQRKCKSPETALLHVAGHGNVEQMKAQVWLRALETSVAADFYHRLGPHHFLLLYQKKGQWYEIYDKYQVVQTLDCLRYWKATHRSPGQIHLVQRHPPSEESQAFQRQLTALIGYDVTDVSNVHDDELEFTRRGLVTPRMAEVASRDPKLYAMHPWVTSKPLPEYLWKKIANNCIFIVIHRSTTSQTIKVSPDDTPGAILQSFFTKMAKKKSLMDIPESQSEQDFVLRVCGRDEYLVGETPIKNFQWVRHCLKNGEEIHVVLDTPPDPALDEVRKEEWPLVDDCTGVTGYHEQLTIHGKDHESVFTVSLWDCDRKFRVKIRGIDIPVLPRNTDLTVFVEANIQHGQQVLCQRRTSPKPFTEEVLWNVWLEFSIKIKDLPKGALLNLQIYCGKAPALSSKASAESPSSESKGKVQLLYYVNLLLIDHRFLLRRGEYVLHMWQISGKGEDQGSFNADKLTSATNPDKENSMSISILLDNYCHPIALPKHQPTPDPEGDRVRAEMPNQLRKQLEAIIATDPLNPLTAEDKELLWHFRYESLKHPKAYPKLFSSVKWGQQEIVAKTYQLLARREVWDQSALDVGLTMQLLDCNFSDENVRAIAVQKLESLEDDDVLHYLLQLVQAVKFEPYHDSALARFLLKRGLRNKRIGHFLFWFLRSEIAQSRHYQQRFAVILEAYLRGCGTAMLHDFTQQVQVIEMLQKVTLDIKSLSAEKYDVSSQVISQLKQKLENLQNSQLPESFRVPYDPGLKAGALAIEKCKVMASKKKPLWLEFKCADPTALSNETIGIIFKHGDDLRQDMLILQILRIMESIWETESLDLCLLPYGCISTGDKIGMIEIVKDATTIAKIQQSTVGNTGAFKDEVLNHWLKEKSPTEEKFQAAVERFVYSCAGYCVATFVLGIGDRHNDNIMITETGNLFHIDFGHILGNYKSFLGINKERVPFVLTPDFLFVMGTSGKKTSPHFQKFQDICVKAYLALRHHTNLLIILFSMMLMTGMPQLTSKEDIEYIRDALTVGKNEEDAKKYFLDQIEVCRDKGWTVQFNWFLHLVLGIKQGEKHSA
Sequence of PIK3CB (Human) (P42338 whole entry, looked up): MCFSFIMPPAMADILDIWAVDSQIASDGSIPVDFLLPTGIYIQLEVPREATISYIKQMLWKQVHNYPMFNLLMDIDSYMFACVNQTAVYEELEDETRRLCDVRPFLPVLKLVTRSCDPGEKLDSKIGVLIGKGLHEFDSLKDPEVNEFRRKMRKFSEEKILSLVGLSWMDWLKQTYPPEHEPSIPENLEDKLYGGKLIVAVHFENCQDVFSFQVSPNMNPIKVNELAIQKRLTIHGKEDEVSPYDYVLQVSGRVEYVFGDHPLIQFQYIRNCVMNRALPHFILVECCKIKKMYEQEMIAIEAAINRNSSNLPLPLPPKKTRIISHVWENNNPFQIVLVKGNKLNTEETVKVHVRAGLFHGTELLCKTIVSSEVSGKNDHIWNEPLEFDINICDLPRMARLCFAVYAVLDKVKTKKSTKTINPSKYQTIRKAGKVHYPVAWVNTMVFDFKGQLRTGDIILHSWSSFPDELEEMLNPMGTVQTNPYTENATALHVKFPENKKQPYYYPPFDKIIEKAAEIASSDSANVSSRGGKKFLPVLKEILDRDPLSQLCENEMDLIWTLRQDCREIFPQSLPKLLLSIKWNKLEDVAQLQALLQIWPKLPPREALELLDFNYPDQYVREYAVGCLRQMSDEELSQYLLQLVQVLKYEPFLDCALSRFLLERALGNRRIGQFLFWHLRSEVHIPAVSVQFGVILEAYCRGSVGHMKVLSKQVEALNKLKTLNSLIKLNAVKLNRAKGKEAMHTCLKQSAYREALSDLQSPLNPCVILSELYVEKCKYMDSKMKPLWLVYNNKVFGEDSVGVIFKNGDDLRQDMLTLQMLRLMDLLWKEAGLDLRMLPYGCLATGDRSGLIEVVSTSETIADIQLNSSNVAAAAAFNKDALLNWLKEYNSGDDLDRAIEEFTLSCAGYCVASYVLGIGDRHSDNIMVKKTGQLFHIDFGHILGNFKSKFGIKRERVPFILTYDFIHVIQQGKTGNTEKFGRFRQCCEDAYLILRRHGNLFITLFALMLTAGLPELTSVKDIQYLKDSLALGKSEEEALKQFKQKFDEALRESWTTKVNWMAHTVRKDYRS
Sequence of PIK3CA (human) (P42336 whole entry, looked up): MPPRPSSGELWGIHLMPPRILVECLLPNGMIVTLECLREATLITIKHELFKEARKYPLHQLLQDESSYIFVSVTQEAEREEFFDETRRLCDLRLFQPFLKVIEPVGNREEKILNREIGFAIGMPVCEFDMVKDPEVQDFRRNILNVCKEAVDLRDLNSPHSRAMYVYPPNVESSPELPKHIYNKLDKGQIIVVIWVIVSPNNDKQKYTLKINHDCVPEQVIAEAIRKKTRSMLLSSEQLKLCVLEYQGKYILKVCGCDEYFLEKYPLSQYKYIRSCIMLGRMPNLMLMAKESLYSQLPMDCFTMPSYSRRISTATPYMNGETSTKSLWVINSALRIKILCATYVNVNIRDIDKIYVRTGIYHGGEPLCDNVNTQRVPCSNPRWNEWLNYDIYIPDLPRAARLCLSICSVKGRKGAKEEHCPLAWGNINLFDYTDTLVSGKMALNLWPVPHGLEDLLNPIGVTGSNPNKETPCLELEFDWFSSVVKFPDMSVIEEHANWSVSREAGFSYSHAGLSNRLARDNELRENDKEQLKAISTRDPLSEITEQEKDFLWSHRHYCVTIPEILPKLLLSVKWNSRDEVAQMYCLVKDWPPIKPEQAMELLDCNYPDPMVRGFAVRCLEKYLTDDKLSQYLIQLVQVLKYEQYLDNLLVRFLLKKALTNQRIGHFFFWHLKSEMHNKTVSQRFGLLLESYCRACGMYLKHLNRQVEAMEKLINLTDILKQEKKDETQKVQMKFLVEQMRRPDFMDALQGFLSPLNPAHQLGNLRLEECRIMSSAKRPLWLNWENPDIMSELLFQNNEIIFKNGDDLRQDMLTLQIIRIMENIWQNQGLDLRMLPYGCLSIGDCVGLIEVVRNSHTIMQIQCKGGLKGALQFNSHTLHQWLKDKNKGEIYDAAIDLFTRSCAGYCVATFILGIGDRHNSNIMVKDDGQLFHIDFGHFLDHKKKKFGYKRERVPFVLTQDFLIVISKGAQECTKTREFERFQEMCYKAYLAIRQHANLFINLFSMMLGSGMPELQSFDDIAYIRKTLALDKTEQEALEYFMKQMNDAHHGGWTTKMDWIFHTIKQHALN

Row | IC50 (PIK3CG (human)) [nM] | IC50 (PIK3CB (Human)) [nM] | IC50 (PIK3CA (human)) [nM] | IC50 (PIK3CD (Human)) [nM] | SMILES
1 | 3110 | – | – | – | COC(=O)Nc1ccc(-c2nc(N3CCOCC3)c3cnn(C4CCN(Cc5cccnc5)CC4)c3n2)cc1
2 | > 10000 | > 10000 | – | – | CNC(=O)Nc1ccc(-c2nc(N3CC4CCC(C3)O4)c3cnn(C4CCC5(CC4)OCCO5)c3n2)cc1
3 | > 14800 | 18900 | 3590 | 3200 | COc1ccc(-c2ccc3c(N4CCOC[C@@H]4C)nc(N4CCOC[C@@H]4C)nc3n2)cc1CO
4 | 331 | 35 | – | 4 | CN1CCN(Cc2cc3nc(-c4cccc(O)c4)nc(N4CCOCC4)c3s2)CC1
5 | 0.06 | – | – | – | COc1ncc(-c2ccc3nccc(-c4ccnnc4)c3c2)cc1NS(=O)(=O)c1ccc(F)cc1F
6 | 7370 | – | – | – | COC(=O)Nc1ccc(-c2nc(N3CCOCC3)c3cnn(C4CCN(C(=O)OC)CC4)c3n2)cc1
7 | 8450 | – | – | – | c1cncc(CN2CCC(n3ncc4c(N5CCOCC5)nc(-c5ccc6[nH]ccc6c5)nc43)CC2)c1
8 | 1770 | 736 | 356 | 3220 | CCC(NC(=O)C(CC(=O)O)NC(=O)CNC(=O)C(CCCN=C(N)N)NC(=O)CCC(=O)O[N+]1(c2cc(=O)c3cccc(-c4ccccc4)c3o2)CCOCC1)C(=O)[O-] (stereo not given)
9 | 672 | 63 | – | 8 | OCCN1CCN(Cc2cc3nc(-c4cccc(O)c4)nc(N4CCOCC4)c3s2)CC1
